Laboratory results from patent publication US20250215029A1 (Recludix Pharma, Inc., priority 2022, published 2025).
pIC50: −log10 of the molar value. Read-outs that look alike come from different tables or passages of the source.

Tests used:
[1] = target: T1, Recombinant STAT6 protein (STAT6 (W123-T658)) (Homo sapiens, UniProt P42226); experiment: STAT6 Fluorescence Polarization (FP) Assay; format: binding; conditions: probe 5-FAM-Ap[…]-NH2 2 nM, 45-minute incubation
T1 construct: Recombinant STAT6 protein (STAT6 (W123-T658))
T1 sequence (P42226 123-658): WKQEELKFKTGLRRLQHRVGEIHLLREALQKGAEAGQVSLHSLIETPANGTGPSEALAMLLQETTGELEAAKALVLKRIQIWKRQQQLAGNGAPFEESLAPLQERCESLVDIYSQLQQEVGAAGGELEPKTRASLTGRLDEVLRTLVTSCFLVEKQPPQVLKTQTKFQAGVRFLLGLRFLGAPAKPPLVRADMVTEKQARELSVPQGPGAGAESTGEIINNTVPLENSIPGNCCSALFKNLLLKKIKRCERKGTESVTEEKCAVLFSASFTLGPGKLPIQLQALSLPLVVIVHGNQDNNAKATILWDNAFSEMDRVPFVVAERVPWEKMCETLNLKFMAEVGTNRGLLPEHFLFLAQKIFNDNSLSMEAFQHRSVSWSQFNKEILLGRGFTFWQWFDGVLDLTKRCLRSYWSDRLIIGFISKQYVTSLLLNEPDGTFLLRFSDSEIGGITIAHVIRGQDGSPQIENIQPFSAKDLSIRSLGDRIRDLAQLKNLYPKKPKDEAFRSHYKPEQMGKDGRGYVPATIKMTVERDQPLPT
Method in brief: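 Recombinant STAT6 (W123-T658) at 250 nM mixed with 2 nM 5-FAM phosphotyrosine peptide probe in HEPES pH 7.4 buffer with DTT, 1% DMSO final, added to serially diluted compounds. FP (mP) read after 45 min at room temperature; IC50 by nonlinear regression vs log concentration.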

[2] = target: T2, Recombinant STAT3 protein (STAT3 (G127-I722)) (Homo sapiens, UniProt P40763); experiment: STAT3 Fluorescence Polarization (FP) Assay; format: binding; conditions: probe 5-FAM-GpYLPQTV-NH2 2 nM, 45-minute incubation
T2 construct: Recombinant STAT3 protein (STAT3 (G127-I722))
T2 sequence (P40763 127-722): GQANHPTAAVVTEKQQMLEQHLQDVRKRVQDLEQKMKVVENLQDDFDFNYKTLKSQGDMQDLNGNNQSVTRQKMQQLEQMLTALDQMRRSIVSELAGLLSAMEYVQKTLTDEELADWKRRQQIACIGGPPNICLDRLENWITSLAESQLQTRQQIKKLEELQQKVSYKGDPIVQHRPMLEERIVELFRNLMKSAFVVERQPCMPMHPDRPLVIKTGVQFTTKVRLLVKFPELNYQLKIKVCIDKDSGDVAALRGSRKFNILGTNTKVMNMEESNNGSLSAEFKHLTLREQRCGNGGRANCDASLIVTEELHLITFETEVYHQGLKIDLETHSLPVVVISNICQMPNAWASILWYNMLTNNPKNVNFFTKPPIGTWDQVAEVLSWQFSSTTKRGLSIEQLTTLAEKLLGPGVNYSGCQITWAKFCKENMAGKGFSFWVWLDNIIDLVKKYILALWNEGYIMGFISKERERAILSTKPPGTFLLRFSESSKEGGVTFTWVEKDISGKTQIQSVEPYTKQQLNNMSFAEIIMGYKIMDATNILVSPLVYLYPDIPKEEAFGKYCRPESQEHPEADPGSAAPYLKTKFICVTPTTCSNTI
Method in brief: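 Displacement of a fluorescent phosphotyrosine peptide (5-FAM-GpYLPQTV-NH2, 2 nM) from 25 nM recombinant STAT3 G127-I722 was monitored by FP after 45 min at room temperature.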

[3] = STAT6 250 nM, read-out: STAT6 (FP assay IC50)
[4] = STAT3 25 nM, read-out: STAT3 (FP assay IC50)
[5] = STAT6 (W123-T658) 250 nM, read-out: STAT6 (FP assay IC50 class)
[6] = STAT3 (G127-I722) 25 nM, read-out: STAT3 (FP assay IC50 class)

Compound	pIC50 [1, 3]	pIC50 [2, 4]	pIC50 [1, 5]	pIC50 [2, 6]
CC(C)(O)c1cn(C2CN(C(=O)[C@@H]3CC[C@@H]4CCCC[C@H](NC(=O)c5cc6cc(C(F)(F)P(=O)(O)O)ccc6s5)C(=O)N43)C2)nn1 [Compound 56, (difluoro(2-(((3S,6S,10aS)-3-(3-(4-(2-hydroxypropan-2-yl)-1H-1,2,3-triazol-1-yl)azetidine-1-carbonyl)-5-oxodecahydropyrrolo [1,2-a]azocin-6-yl)carbamoyl)benzo[b]thiophen-5-yl)methyl) phosphonic acid]	4.52 to 5.52	6.00 to 7.00	–	–
N#C[C@@H]1CN(C(=O)[C@@H]2C[C@@H](O)[C@@H]3CCCCC[C@H](NC(=O)c4cc5cc(C(F)(F)P(=O)(O)O)ccc5s4)C(=O)N23)C[C@H]1c1ccccc1 (relative stereo) [Compound 76, ((2-(((1R,3S,6S, 11aS)-3-(rel-(trans)-3-cyano-4-phenylpyrrolidine-1-carbonyl)-1-hydroxy-5-oxodecahydro-1H-pyrrolo[1,2-a]azonin-6-yl)carbamoyl)benzo[b]thiophen-5-yl)difluoromethyl) phosphonic acid]	≥ 6.52	5.00 to 6.00	–	–
O=C(N[C@H]1C=CC[C@H]2CC[C@@H](C(=O)Nc3ccc(-c4ccccc4)cc3)N2C1=O)c1cc2cc(C(F)(F)P(=O)(O)O)ccc2s1 [Compound 97, ((2-(((3S,6S,9aR)-3-([1,1′-biphenyl]-4-ylcarbamoyl)-5-oxo-2,3,5,6,9,9a-hexahydro-1H-pyrrolo[1,2-a]azepin-6-yl)carbamoyl)benzo[b]thiophen-5-yl)difluoromethyl) phosphonic acid]	5.52 to 6.52	6.00 to 7.00	–	–
O=C(N[C@H]1CCC[C@H]2CC[C@@H](C(=O)N3CCC(c4ncncc4F)CC3)N2C1=O)c1cc2cc(C(F)P(=O)(O)O)ccc2s1 (stereo partly drawn) [Compound 582, (fluoro(2-(((3S,6S,9aS)-3-(4-(5-fluoropyrimidin-4-yl)piperidine-1-carbonyl)-5-oxooctahydro-1H-pyrrolo[1,2-a]azepin-6-yl)carbamoyl)benzo[b]thiophen-5-yl)methyl)phosphonic acid]	–	–	4.52 to 5.52	5.00 to 6.00
COC(=O)N1C[C@H](NC(=O)[C@@H]2CC[C@@H]3CCCC[C@H](NC(=O)c4cc5cc(C(F)P(=O)(O)O)ccc5s4)C(=O)N32)[C@@H](F)C1 (stereo partly drawn) [Compound 525, (fluoro(2-(((3S,6S,10aS)-3-(((3S,4S)-4-fluoro-1-(methoxycarbonyl)pyrrolidin-3-yl)carbamoyl)-5-oxodecahydropyrrolo[1,2-a]azocin-6-yl)carbamoyl)benzo[b]thiophen-5-yl)methyl)phosphonic acid]	–	–	5.52 to 6.52	5.00 to 6.00
O=C(N[C@H]1CCC[C@H]2CC[C@@H](C(=O)N3CC(c4cnccc4N4CC(C(F)F)C4)C3)N2C1=O)c1cc2cc(CP(=O)(O)O)ccc2s1 [Compound 691, ((2-(((3S,6S,9aS)-3-(3-(4-(3-(difluoromethyl)azetidin-1-yl)pyridin-3-yl)azetidine-1-carbonyl)-5-oxooctahydro-1H-pyrrolo[1,2-a]azepin-6-yl)carbamoyl)benzo [b]thiophen-5-yl)methyl) phosphonic acid]	–	–	4.52 to 5.52	> 7.00
CCO[C@@H]1CC[C@H]2CC[C@@H](C(=O)N3CC(C(=O)N4CCOCC4)C3)N2C(=O)[C@@H](NC(=O)c2cc3cc(C(F)(F)P(=O)(O)O)ccc3s2)C1 [Compound 11, ((2-(((3S,6S,8R,10aR)-8-ethoxy-3-(3-(morpholine-4-carbonyl)azetidine-1-carbonyl)-5-oxodecahydropyrrolo [1,2-a]azocin-6-yl)carbamoyl)benzo[b]thiophen-5-yl)difluoromethyl) phosphonic acid]	4.52 to 5.52	6.00 to 7.00	–	–

Results, then the compound that gave them:

pIC50 [1, 3]	pIC50 [2, 4]	pIC50 [1, 5]	pIC50 [2, 6]	Compound
–	–	5.52 to 6.52	> 7.00	O=C(N[C@H]1CCC[C@H]2CC[C@@H](C(=O)N3CC(c4cnccc4N4CC(OC(F)F)C4)C3)N2C1=O)c1cc2cc([C@@H](F)P(=O)(O)O)ccc2s1 [Compound 852, ((S)-(2-(((3S,6S,9aS)-3-(3-(4-(3-(difluoromethoxy)azetidin-1-yl)pyridin-3-yl)azetidine-1-carbonyl)-5-oxooctahydro-1H-pyrrolo[1,2-a]azepin-6-yl)carbamoyl)benzo [b]thiophen-5-yl)fluoromethyl) phosphonic acid]
–	–	4.52 to 5.52	> 7.00	COCCN(C)c1ccncc1C1CN(C(=O)[C@@H]2CC[C@@H]3CCC[C@H](NC(=O)c4cc5cc([C@@H](F)P(=O)(O)O)ccc5s4)C(=O)N32)C1 [Compound 855, ((S)-fluoro(2-(((3S,6S,9aS)-3-(3-(4-((2-methoxyethyl) (methyl)amino)pyridin-3-yl)azetidine-1-carbonyl)-5-oxooctahydro-1H-pyrrolo[1,2-a]azepin-6-yl)carbamoyl)benzo [b]thiophen-5-yl)methyl) phosphonic acid]
–	–	4.52 to 5.52	> 7.00	CCOc1ccncc1C1CN(C(=O)[C@@H]2CC[C@@H]3CCC[C@H](NC(=O)c4cc5cc([C@H](F)P(=O)(O)O)ccc5s4)C(=O)N32)C1 (single isomer, unassigned) [Compound 772]
–	–	4.52 to 5.52	5.00 to 6.00	CCOc1c(F)cncc1C1CN(C(=O)[C@@H]2CC[C@@H]3CCC[C@H](NC(=O)c4cc5cc([C@@H](F)P(=O)(O)O)ccc5s4)C(=O)N32)C1 [Compound 928, ((S)-(2-(((3S,6S,9aS)-3-(3-(4-ethoxy-5-fluoropyridin-3-yl)azetidine-1-carbonyl)-5-oxooctahydro-1H-pyrrolo[1,2-a]azepin-6-yl)carbamoyl)benzo [b]thiophen-5-yl)fluoromethyl) phosphonic acid]
–	–	≥ 6.52	5.00 to 6.00	O=C(N[C@H]1CCCC[C@H]2CC[C@@H](C(=O)N3C(=O)N(c4cccnc4)C(=O)C34CC4)N2C1=O)c1cc2cc(C(F)P(=O)(O)O)ccc2s1 (stereo partly drawn) [Compound 900, ((2-(((3S,6S,10aS)-3-(5,7-dioxo-6-(pyridin-3-yl)-4,6-diazaspiro[2.4]heptane-4-carbonyl)-5-oxodecahydropyrrolo [1,2-a]azocin-6-yl)carbamoyl)benzo [b]thiophen-5-yl)fluoromethyl) phosphonic acid]
–	–	5.52 to 6.52	> 7.00	Cc1ccccc1C1CN(C(=O)[C@@H]2CC[C@@H]3CCC[C@H](NC(=O)c4cc5cc(C(F)(F)P(=O)(O)O)ccc5s4)C(=O)N32)C1 [Compound 778, (difluoro(2-(((3S,6S,9aS)-5-oxo-3-(3-(o-tolyl)azetidine-1-carbonyl)octahydro-1H-pyrrolo[1,2-a]azepin-6-yl)carbamoyl)benzo [b]thiophen-5-yl)methyl) phosphonic acid]
–	–	4.52 to 5.52	> 7.00	Cc1ccncc1C1CN(C(=O)[C@@H]2CC[C@@H]3CCC[C@H](NC(=O)c4cc5cc([C@@H](F)P(=O)(O)O)ccc5s4)C(=O)N32)C1 (single isomer, unassigned) [Compound 755]
–	–	5.52 to 6.52	5.00 to 6.00	C[C@@H]1CC[C@H](NC(=O)c2ccc3ccc(CP(=O)(O)O)cc3c2)C(=O)N2[C@H](CC[C@H]2C(=O)N2CC(c3ccccc3)CC23CC3)C1 (stereo partly drawn) [Compound 887, ((7-(((3S,6S,9R,10aR)-9-methyl-5-oxo-3-(6-phenyl-4-azaspiro[2.4]heptane-4-carbonyl)decahydropyrrolo[1,2-a]azocin-6-yl)carbamoyl)naphthalen-2-yl)methyl) phosphonic acid]
